Measured values taken from the supplement of paper PMC10307832.

Tests used:
Experiment in all cases: relative viability (nuclei count vs DMSO), 5 days (fraction); higher = more cells survive
HARA = test system: HARA
Summary of the method: (§1)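 Relative viability divides the nuclei count in treated wells by that in vehicle wells. Lung cancer cell lines were seeded in 1536-well plates, dosed by pin tool the next day, and fixed and stained after 5 days in one step with final 0.05% Triton X-100, 1% formaldehyde and 1 ug/ml Hoechst. Dosing was a single drug or a fixed anchor-drug dose plus five library-drug doses (not always all listed) in √10 steps, and values are medians of duplicate plates imaged at 4×.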

HCC-15 = test system: HCC-15
Summary of the method: as §1

HCC-366 = test system: HCC-366
Summary of the method: as §1

IA-LM = test system: IA-LM
Summary of the method: as §1

LU99A = test system: LU99A
Summary of the method: as §1

LXF-289 = test system: LXF-289
Summary of the method: as §1

NCI-H1666 = test system: NCI-H1666
Summary of the method: as §1

NCI-H1703 = test system: NCI-H1703
Summary of the method: as §1

NCI-H1734 = test system: NCI-H1734
Summary of the method: as §1

NCI-H1792 = test system: NCI-H1792
Summary of the method: as §1

NCI-H1793 = test system: NCI-H1793
Summary of the method: as §1

NCI-H1944 = test system: NCI-H1944
Summary of the method: as §1

NCI-H1975 = test system: NCI-H1975
Summary of the method: as §1

NCI-H2228 = test system: NCI-H2228
Summary of the method: as §1

NCI-H2347 = test system: NCI-H2347
Summary of the method: as §1

NCI-H3122 = test system: NCI-H3122
Summary of the method: as §1

NCI-H358 = test system: NCI-H358
Summary of the method: as §1

NCI-H460 = test system: NCI-H460
Summary of the method: as §1

NCI-H650 = test system: NCI-H650
Summary of the method: as §1

NCI-H661 = test system: NCI-H661
Summary of the method: as §1

NCI-H838 = test system: NCI-H838
Summary of the method: as §1

PC-3 [JPC-3] = test system: PC-3 [JPC-3]
Summary of the method: as §1

SW 1573 = test system: SW 1573
Summary of the method: as §1

SMILES: Cc1cn(-c2cc(NC(=O)c3ccc(C)c(Nc4nccc(-c5cccnc5)n4)c3)cc(C(F)(F)F)c2)cn1 [Nilotinib] + CS(=O)(=O)CCNCc1ccc(-c2ccc3ncnc(Nc4ccc(OCc5cccc(F)c5)c(Cl)c4)c3c2)o1 [Lapatinib] (partner 2 µM)
- relative viability (HARA; first compound 0.001 µM): 0.685
- relative viability (HARA; first compound 0.003162 µM): 0.777
- relative viability (HARA; first compound 0.01 µM): 0.686
- relative viability (HARA; first compound 0.03162 µM): 0.8
- relative viability (HARA; first compound 0.1 µM): 0.454
- relative viability (HCC-15; first compound 0.001 µM): 0.835
- relative viability (HCC-15; first compound 0.003162 µM): 1.07
- relative viability (HCC-15; first compound 0.01 µM): 1.05
- relative viability (HCC-15; first compound 0.03162 µM): 0.663
- relative viability (HCC-15; first compound 0.1 µM): 0.443
- relative viability (HCC-366; first compound 0.001 µM): 0.907
- relative viability (HCC-366; first compound 0.003162 µM): 1.38
- relative viability (HCC-366; first compound 0.01 µM): 1.29
- relative viability (HCC-366; first compound 0.03162 µM): 0.984
- relative viability (HCC-366; first compound 0.1 µM): 0.191
- relative viability (IA-LM; first compound 0.003162 µM): 0.936
- relative viability (IA-LM; first compound 0.01 µM): 0.755
- relative viability (IA-LM; first compound 0.03162 µM): 0.459
- relative viability (IA-LM; first compound 0.1 µM): 0.794
- relative viability (LU99A; first compound 0.001 µM): 0.954
- relative viability (LU99A; first compound 0.003162 µM): 0.924
- relative viability (LU99A; first compound 0.01 µM): 0.921
- relative viability (LU99A; first compound 0.03162 µM): 0.775
- relative viability (LU99A; first compound 0.1 µM): 0.153
- relative viability (LXF-289; first compound 0.001 µM): 0.839
- relative viability (LXF-289; first compound 0.003162 µM): 1.05
- relative viability (LXF-289; first compound 0.01 µM): 0.927
- relative viability (LXF-289; first compound 0.03162 µM): 0.941
- relative viability (LXF-289; first compound 0.1 µM): 0.63
- relative viability (NCI-H1666; first compound 0.001 µM): 0.772
- relative viability (NCI-H1666; first compound 0.003162 µM): 0.901
- relative viability (NCI-H1666; first compound 0.01 µM): 0.461
- relative viability (NCI-H1666; first compound 0.03162 µM): 0.655
- relative viability (NCI-H1666; first compound 0.1 µM): 0.641
- relative viability (NCI-H1703; first compound 0.003162 µM): 0.738
- relative viability (NCI-H1703; first compound 0.01 µM): 0.567
- relative viability (NCI-H1703; first compound 0.03162 µM): 0.208
- relative viability (NCI-H1703; first compound 0.1 µM): 0.227
- relative viability (NCI-H1734; first compound 0.001 µM): 1
- relative viability (NCI-H1734; first compound 0.003162 µM): 1.14
- relative viability (NCI-H1734; first compound 0.01 µM): 1.27
- relative viability (NCI-H1734; first compound 0.03162 µM): 0.808
- relative viability (NCI-H1734; first compound 0.1 µM): 0.517
- relative viability (NCI-H1792; first compound 0.001 µM): 0.899
- relative viability (NCI-H1792; first compound 0.01 µM): 1.12
- relative viability (NCI-H1792; first compound 0.1 µM): 1.24
- relative viability (NCI-H1793; first compound 0.003162 µM): 0.842
- relative viability (NCI-H1793; first compound 0.01 µM): 1.02
- relative viability (NCI-H1793; first compound 0.03162 µM): 0.859
- relative viability (NCI-H1793; first compound 0.1 µM): 0.21
- relative viability (NCI-H1944; first compound 0.001 µM): 0.894
- relative viability (NCI-H1944; first compound 0.003162 µM): 0.996
- relative viability (NCI-H1944; first compound 0.01 µM): 0.742
- relative viability (NCI-H1944; first compound 0.03162 µM): 1.03
- relative viability (NCI-H1944; first compound 0.1 µM): 0.389
- relative viability (NCI-H1975; first compound 0.001 µM): 0.859
- relative viability (NCI-H1975; first compound 0.003162 µM): 1.18
- relative viability (NCI-H1975; first compound 0.01 µM): 0.894
- relative viability (NCI-H1975; first compound 0.03162 µM): 0.658
- relative viability (NCI-H1975; first compound 0.1 µM): 0.433
- relative viability (NCI-H2228; first compound 0.001 µM): 1.03
- relative viability (NCI-H2228; first compound 0.003162 µM): 1.25
- relative viability (NCI-H2228; first compound 0.01 µM): 1.13
- relative viability (NCI-H2228; first compound 0.03162 µM): 1.01
- relative viability (NCI-H2228; first compound 0.1 µM): 0.285
- relative viability (NCI-H2347; first compound 0.001 µM): 0.821
- relative viability (NCI-H2347; first compound 0.003162 µM): 1.01
- relative viability (NCI-H2347; first compound 0.01 µM): 0.823
- relative viability (NCI-H2347; first compound 0.03162 µM): 0.817
- relative viability (NCI-H2347; first compound 0.1 µM): 0.6
- relative viability (NCI-H3122; first compound 0.001 µM): 0.988
- relative viability (NCI-H3122; first compound 0.003162 µM): 1.07
- relative viability (NCI-H3122; first compound 0.01 µM): 0.991
- relative viability (NCI-H3122; first compound 0.03162 µM): 1.01
- relative viability (NCI-H3122; first compound 0.1 µM): 0.98
- relative viability (NCI-H358; first compound 0.001 µM): 0.442
- relative viability (NCI-H358; first compound 0.003162 µM): 0.529
- relative viability (NCI-H358; first compound 0.01 µM): 0.539
- relative viability (NCI-H358; first compound 0.03162 µM): 0.438
- relative viability (NCI-H358; first compound 0.1 µM): 0.325
- relative viability (NCI-H460; first compound 0.001 µM): 0.521
- relative viability (NCI-H460; first compound 0.03162 µM): 0.378
- relative viability (NCI-H460; first compound 0.1 µM): 0.0571
- relative viability (NCI-H650; first compound 0.001 µM): 0.897
- relative viability (NCI-H650; first compound 0.003162 µM): 0.65
- relative viability (NCI-H650; first compound 0.01 µM): 0.918
- relative viability (NCI-H650; first compound 0.03162 µM): 0.851
- relative viability (NCI-H650; first compound 0.1 µM): 0.682
- relative viability (NCI-H661; first compound 0.001 µM): 0.446
- relative viability (NCI-H661; first compound 0.003162 µM): 0.445
- relative viability (NCI-H661; first compound 0.01 µM): 0.549
- relative viability (NCI-H661; first compound 0.03162 µM): 0.42
- relative viability (NCI-H661; first compound 0.1 µM): 0.436
- relative viability (NCI-H838; first compound 0.001 µM): 0.927
- relative viability (NCI-H838; first compound 0.003162 µM): 1.02
- relative viability (NCI-H838; first compound 0.01 µM): 0.925
- relative viability (NCI-H838; first compound 0.03162 µM): 0.817
- relative viability (NCI-H838; first compound 0.1 µM): 0.609
- relative viability (PC-3 [JPC-3]; first compound 0.001 µM): 0.44
- relative viability (PC-3 [JPC-3]; first compound 0.003162 µM): 0.537
- relative viability (PC-3 [JPC-3]; first compound 0.01 µM): 0.467
- relative viability (PC-3 [JPC-3]; first compound 0.03162 µM): 0.542
- relative viability (PC-3 [JPC-3]; first compound 0.1 µM): 0.282
- relative viability (SW 1573; first compound 0.003162 µM): 1.26
- relative viability (SW 1573; first compound 0.01 µM): 1.17
- relative viability (SW 1573; first compound 0.03162 µM): 1.1
- relative viability (SW 1573; first compound 0.1 µM): 1.27
